Measured values as given in ChEMBL document CHEMBL1201862, “PubChem BioAssay data set” (2004).
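In this assay, cells in 96-well plates receive the compound at five concentrations for 48 hours. Endpoints are linearly interpolated between the surrounding concentrations. GI50 marks 50% less growth.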 Active and inactive are the calls of the source. Cut-off read from the data, not from the text of the source: active = GI50 up to about 1.1 µM and inactive = higher.

Tests used:
Experiment in all cases: inhibition of tumour cell growth, NCI panel, 48 h
OVCAR-3 = system: OVCAR-3
TK-10 = system: TK-10
M14 = system: M14
A549 = system: A549
UACC-257 = system: UACC-257
OVCAR-5 = system: OVCAR-5
SNB-19 = system: SNB-19
U-251 = system: U-251
Malme-3M = system: Malme-3M
SW-620 = system: SW-620
NCI/ADR-RES = system: NCI/ADR-RES
HCT-15 = system: HCT-15
NCI-H23 = system: NCI-H23
A498 = system: A498
SF-539 = system: SF-539
UO-31 = system: UO-31
EKVX = system: EKVX
DU-145 = system: DU-145
NCI-H226 = system: NCI-H226
SF-268 = system: SF-268

| Structure (SMILES) | GI50 (OVCAR-3) | GI50 (TK-10) | GI50 (M14) | GI50 (A549) | GI50 (UACC-257) | GI50 (OVCAR-5) | GI50 (SNB-19) | GI50 (U-251) | GI50 (Malme-3M) | GI50 (SW-620) | GI50 (NCI/ADR-RES) | GI50 (HCT-15) [µM] | GI50 (NCI-H23) | GI50 (A498) | GI50 (SF-539) | GI50 (UO-31) | GI50 (EKVX) | GI50 (DU-145) | GI50 (NCI-H226) | GI50 (SF-268) |
| --- | --- | --- | --- | --- | --- | --- | --- | --- | --- | --- | --- | --- | --- | --- | --- | --- | --- | --- | --- | --- |
| CCOC(=O)c1csc(NC(=O)C(C)N2CCCCC2)n1 (stereo not given) | > 100 µM (inactive) | > 100 µM (inactive) | > 100 µM (inactive) | > 100 µM (inactive) | > 100 µM (inactive) | > 100 µM (inactive) | > 100 µM (inactive) | > 100 µM (inactive) | > 100 µM (inactive) | > 100 µM (inactive) | > 100 µM (inactive) | > 100 | > 100 µM (inactive) | > 100 µM (inactive) | > 100 µM (inactive) | > 100 µM (inactive) | > 100 µM (inactive) | > 100 µM (inactive) |  |  |
| C=C[C@@](C)(/C=C/c1ccc(O)cc1)CCC=C(C)C [BAKUCHIOL] | 18.3 µM (inactive) | 17.1 µM (inactive) | 19.1 µM (inactive) | 17.8 µM (inactive) | 17.7 µM (inactive) | 19.2 µM (inactive) | 19.1 µM (inactive) | 16.9 µM (inactive) |  | 17 µM (inactive) | 16.2 µM (inactive) | 16.8 | 16.7 µM (inactive) | 21.2 µM (inactive) |  | 17.7 µM (inactive) |  | 13.2 µM (inactive) | 19 µM (inactive) |  |
| C=CC1=C(C)c2cc3[nH]c(c4c5nc(cc6[nH]c(cc1n2)c(C)c6CC)C=C5C(=O)C4C(=O)OC)C(CCC(=O)OC/C=C(\C)CCCC(C)CCCC(C)CCCC(C)C)C3C.C=CC1=C(C)c2cc3[nH]c(c4c5nc(cc6[nH]c(cc1n2)c(C=O)c6CC)C=C5C(=O)C4C(=O)OC)C(CCC(=O)OC/C=C(\C)CCCC(C)CCCC(C)CCCC(C)C)C3C (stereo not given) | > 100 µM (inactive) | > 100 µM (inactive) | > 100 µM (inactive) | > 100 µM (inactive) | > 100 µM (inactive) | > 100 µM (inactive) | > 100 µM (inactive) | > 100 µM (inactive) |  | > 100 µM (inactive) | > 100 µM (inactive) | > 100 | > 100 µM (inactive) | > 100 µM (inactive) | > 100 µM (inactive) | > 100 µM (inactive) | 50.6 µM (inactive) | > 100 µM (inactive) | > 100 µM (inactive) | > 100 µM (inactive) |
| CCOP(=O)(OCC)C(Nc1ccc(C(=O)O)cc1)c1ccc(C(Nc2ccc(C(=O)O)cc2)P(=O)(OCC)OCC)cc1 (stereo not given) | > 100 µM (inactive) | > 100 µM (inactive) | > 100 µM (inactive) | > 100 µM (inactive) | > 100 µM (inactive) | > 100 µM (inactive) | > 100 µM (inactive) | > 100 µM (inactive) | > 100 µM (inactive) | > 100 µM (inactive) | > 100 µM (inactive) | > 100 | > 100 µM (inactive) | > 100 µM (inactive) |  | > 100 µM (inactive) | > 100 µM (inactive) | > 100 µM (inactive) | > 100 µM (inactive) | > 100 µM (inactive) |
| COc1ccc(C2=C(N)c3c(Cl)cccc3C2=O)cc1 | > 100 µM (inactive) |  | > 100 µM (inactive) | > 100 µM (inactive) | > 100 µM (inactive) | > 100 µM (inactive) | 22 µM (inactive) | 49.3 µM (inactive) | > 100 µM (inactive) | > 100 µM (inactive) | 50 µM (inactive) | > 100 | 32.6 µM (inactive) | > 100 µM (inactive) | > 100 µM (inactive) |  | > 100 µM (inactive) | > 100 µM (inactive) | > 100 µM (inactive) | > 100 µM (inactive) |
| O=c1c2ccccc2ncn1COCc1ccccc1 | > 100 µM (inactive) | > 100 µM (inactive) | > 100 µM (inactive) | > 100 µM (inactive) | > 100 µM (inactive) | > 100 µM (inactive) | > 100 µM (inactive) | > 100 µM (inactive) |  | > 100 µM (inactive) | > 100 µM (inactive) | > 100 |  | > 100 µM (inactive) | > 100 µM (inactive) | 77.3 µM (inactive) | > 100 µM (inactive) | > 100 µM (inactive) | > 100 µM (inactive) |  |
| CN(C)/N=N/c1ccc(NC=O)cc1 | > 100 µM (inactive) | > 100 µM (inactive) | > 100 µM (inactive) | > 100 µM (inactive) | > 100 µM (inactive) | 90.4 µM (inactive) | > 100 µM (inactive) | > 100 µM (inactive) |  | > 100 µM (inactive) | > 100 µM (inactive) | > 100 |  | > 100 µM (inactive) | > 100 µM (inactive) | 82.8 µM (inactive) | > 100 µM (inactive) | > 100 µM (inactive) |  | 0.456 µM (active) |
| Oc1nc(-c2ccc3ccccc3c2)nc2ccccc12 | 35.4 µM (inactive) | 0.771 µM (active) | 33.5 µM (inactive) | 26.9 µM (inactive) | 74.6 µM (inactive) | 35.2 µM (inactive) | 19.1 µM (inactive) | 25.5 µM (inactive) | 33.6 µM (inactive) | > 100 µM (inactive) | 20 µM (inactive) | > 100 | 58.5 µM (inactive) | 32.9 µM (inactive) |  | 23.4 µM (inactive) | 43.5 µM (inactive) | > 100 µM (inactive) | 12.6 µM (inactive) | 26.3 µM (inactive) |
| NCC(=O)N[C@H]1c2ccsc2/C(=N/O)[C@H]1O | > 100 µM (inactive) | > 100 µM (inactive) | > 100 µM (inactive) | > 100 µM (inactive) | > 100 µM (inactive) | > 100 µM (inactive) |  | > 100 µM (inactive) | > 100 µM (inactive) | > 100 µM (inactive) | > 100 µM (inactive) | > 100 | > 100 µM (inactive) | > 100 µM (inactive) | > 100 µM (inactive) | > 100 µM (inactive) | > 100 µM (inactive) | > 100 µM (inactive) | > 100 µM (inactive) |  |
| COc1cc(C2C3=C(N=C4SC(C(C)=O)=C(C)N42)c2ccccc2CC3)cc(OC)c1OC (stereo not given) | > 100 µM (inactive) |  | > 100 µM (inactive) | > 100 µM (inactive) | > 100 µM (inactive) | > 100 µM (inactive) | > 100 µM (inactive) | > 100 µM (inactive) |  | > 100 µM (inactive) | 78.9 µM (inactive) |  | > 100 µM (inactive) | > 100 µM (inactive) | > 100 µM (inactive) | > 100 µM (inactive) | 85.5 µM (inactive) | > 100 µM (inactive) | > 100 µM (inactive) | > 100 µM (inactive) |
| CN(C)N1C(=O)S/C(=C\c2ccc([N+](=O)[O-])cc2)C1=O | > 100 µM (inactive) | > 100 µM (inactive) | > 100 µM (inactive) | > 100 µM (inactive) | > 100 µM (inactive) | > 100 µM (inactive) |  | 51.5 µM (inactive) | > 100 µM (inactive) |  | > 100 µM (inactive) | > 100 | > 100 µM (inactive) | > 100 µM (inactive) | > 100 µM (inactive) |  | > 100 µM (inactive) | > 100 µM (inactive) | > 100 µM (inactive) | > 100 µM (inactive) |
